Test results published in patent US5464607A, “5,5'-/(1,3-propanediyl) bis-/imino(2-oxo-2,1-ethanediyl)acetylimino/bis(2,4,6-triiodo-1,3-benzen edicarboxylamides), and contrast media containing them” (Dibra S.p.A., priority 1991, dated 1995).

What was measured:
[1] = Viscosity (ROTOVISCO RV100CV100-LV100, sensor ZB15); assay type: physicochemical
Source text: ^b) Calculated with ROTOVISCO^(R) RV100CV100-LV100, sensor ZB15.

[2] = water
physchem = settings: water
[3] = Osmolality (steampressure osmometer Wescor mod 5500); assay type: physicochemical
Source text: ^a) Calculated with a steampressure osmometer Wescor(R) mod 5500,
calibrated with NaCl aqueous solutions.

Structure (SMILES): CC(=O)N(CC(=O)NCC(O)CNC(=O)CN(C(C)=O)c1c(I)c(C(=O)NCC(O)CO)c(I)c(C(=O)NCC(O)CO)c1I)c1c(I)c(C(=O)NCC(O)CO)c(I)c(C(=O)NCC(O)CO)c1I (centres unmarked) [5,5'-[(2-hydroxy-1,3-propanediyl)bis [imino(2-oxo-2,1-ethanediyl)acetylimino]]bis[N,N'-bis(2,3-dihydroxypropyl)-2,4,6-triiodo-1,3-benzenedicarboxyamide]]
- Viscosity at 20° C. ([1]; 200 mgI/ml): 5,7 mPa·s
- Viscosity at 20° C. ([1]; 300 mgI/ml): 24 mPa·s
- Viscosity at 20° C. ([1]; 400 mgI/ml): 112 mPa·s
- Viscosity at 37° C. ([1]; 200 mgI/ml): 3,4 mPa·s
- Viscosity at 37° C. ([1]; 300 mgI/ml): 12 mPa·s
- Viscosity at 37° C. ([1]; 400 mgI/ml): 41 mPa·s
- Solubility in H2 O at 30° C. [2]: > 100 g in 100 ml
- solubility (physchem): > 1000 mg/mL
- Osmolality ([3]; 200 mgI/ml): 0,17 osmol/kg H2 O
- Osmolality ([3]; 300 mgI/ml): 0,25 osmol/kg H2 O
- Osmolality ([3]; 400 mgI/ml): 0,72 osmol/kg H2 O
